pEC50: −log10 of the molar value.
System: breast cancer cell line MX-1
Test: MX-1 cell line proliferation assay (3-day, Cell Titer Glo)
Type: cell-based
Details: Homo sapiens, MX1, MX-1 cells, 72 hours, read-out: Cellular proliferation: EC50
Procedure: The impact of compounds of the Examples on cancer cell proliferation was determined using the breast cancer cell line MX-1 (ATCC) in a 3-day proliferation assay. MX-1 cells were maintained in RPMI supplemented with 10% FBS at 37° C. and an atmosphere of 5% CO2. For compound testing, MX-1 cells were plated in 96-well black bottom plates at a density of 5000 cells/well in 90 μL of culture media and incubated at 37° overnight to allow cell adhesion and spreading. Compound dilution series were prepared in DMSO via a 3-fold serial dilution from 3 mM to […]. The DMSO dilution series were then diluted 1:100 in phosphate buffered saline, and 10 μL of the resulted solution were added to the appropriate wells of the MX-1 cell plate. The final compound concentrations in the wells were 3, 1, 0.3, 0.1, 0.03, 0.01, 0.003, 0.001, 0.0003, 0.0001, and 0.00003 μM.
Luminescence readings from the Cell Titer Glo assay were normalized to the DMSO treated cells and analyzed using the GraphPad Prism software with sigmoidal curve fitting to obtain EC50s. The minimum significant ratio (MSR) was determined to evaluate assay reproducibility (Eastwood et al., (2006) J Biomol Screen, 11: 253-261). The overall MSR was determined to be 2.1 and a moving MSR (last six run MSR overtime) has been <2. The EC50 values are reported in Table 1 for the indicated compounds.

| Structure (SMILES) | pEC50 |
| --- | --- |
| CCOc1cc(=O)n(C)cc1-c1cc(NC(=O)Nc2ccc(C)cc2C)ccc1Oc1ccc(F)cc1F [Example 16, 1-[4-(2,4-difluorophenoxy)-3-(4-ethoxy-1-methyl-6-oxo-1,6-dihydropyridin-3-yl)phenyl]-3-(2,4-dimethylphenyl)urea] | < 5.52 |
| CCOc1cc(=O)n(C)cc1-c1cc(NCc2cnco2)ccc1Oc1ccc(F)cc1F [Example 23, 5-{2-(2,4-difluorophenoxy)-5-[(1,3-oxazol-5-ylmethyl)amino]phenyl}-4-ethoxy-1-methylpyridin-2(1H)-one] | < 5.52 |
| CCOc1cc(=O)n(C)cc1-c1cc(NCc2cncn2C)ccc1Oc1ccc(F)cc1F [Example 24, 5-[2-(2,4-difluorophenoxy)-5-{[(1-methyl-1H-imidazol-5-yl)methyl]amino}phenyl]-4-ethoxy-1-methylpyridin-2(1H)-one] | 6.08 |
| CCOc1cc(=O)n(C)cc1-c1cc(NCc2ccn(CC)n2)ccc1Oc1ccc(F)cc1F [Example 25, 5-[2-(2,4-difluorophenoxy)-5-{[(1-ethyl-1H-pyrazol-3-yl)methyl]amino}phenyl]-4-ethoxy-1-methylpyridin-2(1H)-one] | 5.81 |
| CCOc1cc(=O)n(C)cc1-c1cc(NC(=O)CCS(=O)(=O)c2ccccc2)ccc1Oc1ccc(F)cc1F [Example 27, N-[4-(2,4-difluorophenoxy)-3-(4-ethoxy-1-methyl-6-oxo-1,6-dihydropyridin-3-yl)phenyl]-3-(phenylsulfonyl)propanamide] | 6.14 |
| CCOc1cc(=O)n(C)cc1-c1cc(NC(=O)CCOc2ccccc2)ccc1Oc1ccc(F)cc1F [Example 30, N-[4-(2,4-difluorophenoxy)-3-(4-ethoxy-1-methyl-6-oxo-1,6-dihydropyridin-3-yl)phenyl]-3-phenoxypropanamide] | < 5.52 |
| CCOc1cc(=O)n(C)cc1-c1cc(NC(=O)Cc2ccc(Oc3ccccc3)cc2)ccc1Oc1ccc(F)cc1F [Example 37, N-[4-(2,4-difluorophenoxy)-3-(4-ethoxy-1-methyl-6-oxo-1,6-dihydropyridin-3-yl)phenyl]-2-(4-phenoxyphenyl)acetamide] | 5.84 |
| CCOc1cc(=O)n(C)cc1-c1cc(NC(=O)CCCc2ccccc2)ccc1Oc1ccc(F)cc1F [Example 38, N-[4-(2,4-difluorophenoxy)-3-(4-ethoxy-1-methyl-6-oxo-1,6-dihydropyridin-3-yl)phenyl]-4-phenylbutanamide] | 6.11 |
| CCOc1cc(=O)n(C)cc1-c1cc(NC(=O)Cc2ccc(OCc3ccccc3)cc2)ccc1Oc1ccc(F)cc1F [Example 45, 2-[4-(benzyloxy)phenyl]-N-[4-(2,4-difluorophenoxy)-3-(4-ethoxy-1-methyl-6-oxo-1,6-dihydropyridin-3-yl)phenyl]acetamide] | 6.01 |
| CCOc1cc(=O)n(C)cc1-c1cc(N(CC2CC2)S(=O)(=O)Cc2cc(F)ccc2Cl)ccc1Oc1ccc(F)cc1F [Example 66, 1-(2-chloro-5-fluorophenyl)-N-(cyclopropylmethyl)-N-[4-(2,4-difluorophenoxy)-3-(4-ethoxy-1-methyl-6-oxo-1,6-dihydropyridin-3-yl)phenyl]methanesulfonamide] | < 6.00 |
| CCOc1cc(=O)n(C)cc1-c1cc(N(CC2CC2)C(=O)Cc2cc(F)ccc2Cl)ccc1Oc1ccc(F)cc1F [Example 67, 2-(2-chloro-5-fluorophenyl)-N-(cyclopropylmethyl)-N-[4-(2,4-difluorophenoxy)-3-(4-ethoxy-1-methyl-6-oxo-1,6-dihydropyridin-3-yl)phenyl]acetamide] | < 6.00 |
| CCOc1cc(=O)n(C)cc1-c1cc(NC(=O)C(C)c2cc(F)ccc2Cl)ccc1Oc1ccc(F)cc1F (centres unmarked) [Example 70, 2-(2-chloro-5-fluorophenyl)-N-[4-(2,4-difluorophenoxy)-3-(4-ethoxy-1-methyl-6-oxo-1,6-dihydropyridin-3-yl)phenyl]propanamide] | < 6.00 |
| CCOc1cc(=O)n(C)cc1-c1cc(N(C)C(=O)Cc2cc(F)ccc2Cl)ccc1Oc1ccc(F)cc1F [Example 71, 2-(2-chloro-5-fluorophenyl)-N-[4-(2,4-difluorophenoxy)-3-(4-ethoxy-1-methyl-6-oxo-1,6-dihydropyridin-3-yl)phenyl]-N-methylacetamide] | < 6.00 |
| CCOc1cc(=O)n(C)cc1-c1cc(N(Cc2ccccc2)S(=O)(=O)CC)ccc1Oc1ccc(F)cc1F [Example 73, N-benzyl-N-[4-(2,4-difluorophenoxy)-3-(4-ethoxy-1-methyl-6-oxo-1,6-dihydropyridin-3-yl)phenyl]ethanesulfonamide] | < 6.00 |

More lines, in order of rising pEC50, values ahead:

| pEC50 | Structure (SMILES) |
| --- | --- |
| 6.15 | CCOc1cc(=O)n(C)cc1-c1cc(NCc2ccccc2C#N)ccc1Oc1ccc(F)cc1F [Example 57, 2-({[4-(2,4-difluorophenoxy)-3-(4-ethoxy-1-methyl-6-oxo-1,6-dihydropyridin-3-yl)phenyl]amino}methyl)benzonitrile] |
| 6.17 | CCOc1cc(=O)n(C)cc1-c1cc(NC(=O)Cc2ccc(-c3ccccc3)cc2)ccc1Oc1ccc(F)cc1F [Example 42, 2-(biphenyl-4-yl)-N-[4-(2,4-difluorophenoxy)-3-(4-ethoxy-1-methyl-6-oxo-1,6-dihydropyridin-3-yl)phenyl]acetamide] |
| 6.22 | CCOc1cc(=O)n(C)cc1-c1cc(NC(=O)Cc2cccc(Oc3ccccc3)c2)ccc1Oc1ccc(F)cc1F [Example 28, N-[4-(2,4-difluorophenoxy)-3-(4-ethoxy-1-methyl-6-oxo-1,6-dihydropyridin-3-yl)phenyl]-2-(3-phenoxyphenyl)acetamide] |
| 6.23 | CCOc1cc(=O)n(C)cc1-c1cc(NC(=O)Cc2ccc3ccccc3c2)ccc1Oc1ccc(F)cc1F [Example 39, N-[4-(2,4-difluorophenoxy)-3-(4-ethoxy-1-methyl-6-oxo-1,6-dihydropyridin-3-yl)phenyl]-2-(naphthalen-2-yl)acetamide] |
| 6.25 | CCOc1cc(=O)n(C)cc1-c1cc(NC(=O)Nc2cc(C)ccc2C)ccc1Oc1ccc(F)cc1F [Example 19, 1-[4-(2,4-difluorophenoxy)-3-(4-ethoxy-1-methyl-6-oxo-1,6-dihydropyridin-3-yl)phenyl]-3-(2,5-dimethylphenyl)urea] |
| 6.29 | CCOc1cc(=O)n(C)cc1-c1cc(NCc2ccc(F)cc2)ccc1Oc1ccc(F)cc1F [Example 64, 5-{2-(2,4-difluorophenoxy)-5-[(4-fluorobenzyl)amino]phenyl}-4-ethoxy-1-methylpyridin-2(1H)-one] |
| 6.32 | CCOc1cc(=O)n(C)cc1-c1cc(NC(=O)Cc2noc3ccccc23)ccc1Oc1ccc(F)cc1F [Example 36, 2-(1,2-benzoxazol-3-yl)-N-[4-(2,4-difluorophenoxy)-3-(4-ethoxy-1-methyl-6-oxo-1,6-dihydropyridin-3-yl)phenyl]acetamide] |
| 6.33 | CCOc1cc(=O)n(C)cc1-c1cc(NC(=O)COc2ccc(C)cc2)ccc1Oc1ccc(F)cc1F [Example 33, N-[4-(2,4-difluorophenoxy)-3-(4-ethoxy-1-methyl-6-oxo-1,6-dihydropyridin-3-yl)phenyl]-2-(4-methylphenoxy)acetamide] |
| 6.33 | CCOc1cc(=O)n(C)cc1-c1cc(N(Cc2ccccc2Cl)S(=O)(=O)CC)ccc1Oc1ccc(F)cc1F [Example 74, N-(2-chlorobenzyl)-N-[4-(2,4-difluorophenoxy)-3-(4-ethoxy-1-methyl-6-oxo-1,6-dihydropyridin-3-yl)phenyl]ethanesulfonamide] |
| 6.35 | CCOc1cc(=O)n(C)cc1-c1cc(NC(=O)Cc2ccccc2OC)ccc1Oc1ccc(F)cc1F [Example 46, N-[4-(2,4-difluorophenoxy)-3-(4-ethoxy-1-methyl-6-oxo-1,6-dihydropyridin-3-yl)phenyl]-2-(2-methoxyphenyl)acetamide] |
| 6.36 | CCOc1cc(=O)n(C)cc1-c1cc(NC(=O)Cc2ccc(S(C)(=O)=O)cc2)ccc1Oc1ccc(F)cc1F [Example 29, N-[4-(2,4-difluorophenoxy)-3-(4-ethoxy-1-methyl-6-oxo-1,6-dihydropyridin-3-yl)phenyl]-2-[4-(methylsulfonyl)phenyl]acetamide] |
| 6.40 | CCOc1cc(=O)n(C)cc1-c1cc(NC(=O)CCc2ccccc2)ccc1Oc1ccc(F)cc1F [Example 41, N-[4-(2,4-difluorophenoxy)-3-(4-ethoxy-1-methyl-6-oxo-1,6-dihydropyridin-3-yl)phenyl]-3-phenylpropanamide] |
| 6.43 | CCOc1cc(=O)n(C)cc1-c1cc(NC(=O)COCc2ccccc2)ccc1Oc1ccc(F)cc1F [Example 35, 2-(benzyloxy)-N-[4-(2,4-difluorophenoxy)-3-(4-ethoxy-1-methyl-6-oxo-1,6-dihydropyridin-3-yl)phenyl]acetamide] |
| 6.63 | CCOc1cc(=O)n(C)cc1-c1cc(N(CC2CC2)S(=O)(=O)CC)ccc1Oc1ccc(F)cc1F [Example 72, N-(cyclopropylmethyl)-N-[4-(2,4-difluorophenoxy)-3-(4-ethoxy-1-methyl-6-oxo-1,6-dihydropyridin-3-yl)phenyl]ethanesulfonamide] |
| 6.95 | CCOc1cc(=O)n(C)cc1-c1cc(NCCCC(=O)OC)ccc1Oc1ccc(F)cc1F [Example 14, methyl 4-{[4-(2,4-difluorophenoxy)-3-(4-ethoxy-1-methyl-6-oxo-1,6-dihydropyridin-3-yl)phenyl]amino}butanoate] |
